According to patent US20250019374A1, “PROTEIN TYROSINE PHOSPHATASE INHIBITORS AND METHODS OF USE THEREOF” (Calico Life Sciences LLC, priority 2021, published 2025):
Like-named read-outs stand apart in the source and are kept apart here.

Experiments:
[1] = biological target: His tagged PTPN2 (TC45) protein (Homo sapiens (Human), UniProt P17706); assay: PTPN2 Mobility Shift Assay (MSA); type: biochemical; conditions: for Dihydrobenzofuran or Indoline x-fold>potency biochemical: x-fold versus corresponding chromane comparator, PTPN2 MSA
Protocol: Example III-1: Mobility Shift Assay (MSA) Used to Determine Potency of PTPN2 Inhibitors
Compound activity was determined using in house His tagged PTPN2 (TC45) protein (SEQ ID NO: 1) in an in vitro enzymatic reaction. The enzymatic assay used to determine activity was a mobility shift assay using a LabChip EZ Reader by Caliper Life Sciences. The enzymatic reaction was carried out in assay buffer (50 mM HEPES pH 7.5, 1 mM EGTA, 10 mM EDTA, 0.01% Tween® 20, and 2 mM DTT). The compounds were dispensed on a white 384 well ProxiPlate™ (PerkinElmer Catalog #6008289) plate using the Labcyte Echo at varying concentrations (12 point, 1:3 dilution). The enzyme (at 0.5 nM) was incubated with compound for 10 minutes at room temperature. Thereafter, the substrate (phosphorylated insulin receptor probe sequence: ((OG488)-(NH—CH2—CH2—O—CH2—CH2—O—CH2—CO)-T-R-D-I—(PY)-E-T-D-Y—Y—R—K—K—NH2) (SEQ ID NO: 2) was added at 2 μM to the plates and incubated for another 10 minutes at room temperature. Finally, a quench solution (water and 4-bromo-3-(2-oxo-2-propoxyethoxy)-5-(3-{[1-(phenylmethanesulfonyl)piperidin-4-yl]amino}phenyl)thiophene-2-carboxylic acid) was added to the plates, which were then run on the EZ Reader (excitation 488 nm, emission 530 nm) to measure % conversion (the amount of phosphorylated substrate which was de-phosphorylated by PTPN2). […] The % inhibition was then used to calculate the IC50 values.

[2] = test system: IFNγ-induced STAT1 phosphorylation (pSTAT1) in B16F10 cells; assay: B16F10 Phospho-STAT1 HTRF proximal pharmacodynamic (PD) assay; type: cell-based, murine; conditions: for EC50: B16-F10, B16F10 cells; for Dihydrobenzofuran or Indoline x-fold>potency cellular: x-fold versus corresponding chromane comparator, B16F10 pSTAT1
Protocol: Example III-3: B16F10 (Murine Melanoma Cells) Phospho-STAT1 HTRF Proximal Pharmacodynamic (PD) Assay
B16F10 cells were grown and maintained in high glucose DMEM (Gibco, Catalog^#11965-092, Dun Laoghaire Co Dublin) supplemented with 10% fetal bovine serum (Gibco, Catalog^#10082-139, Dun Laoghaire Co Dublin). The cells were pelleted and resuspended in high glucose DMEM without phenol red (Gibco, Catalog^#11054-020, Dun Laoghaire Co Dublin), supplemented with 10% fetal bovine serum and plated in a 384 well Corning plate (product^#3765, Corning, NY) at 11,000 cells per well in a volume of 20 μL. The cells were dosed with the compounds of interest using an Echo Liquid Handler (Beckman Coulter, Brea, CA) at 50 μM top dose with 3-fold dilutions down to 0.002679 μM for a 10-point dose response. The plate was incubated for 3 hours at 37° C. and subsequently treated with recombinant mouse IFNγ (R&D Systems, Catalog^#485-MI, Minneapolis, MN; 100 nM final concentration) for 10 minutes at 37° C. to induce STAT1 phosphorylation followed by 3.3 μM staurosporine treatment for 1 hour at 37° C. to terminate phosphorylation. Media was then aspirated and 20 μL of 1× lysis buffer/blocking reagent (Cisbio Phospho-STAT1 kit, part^# 63ADK026PEH, Bedford, MA) was added. The plate was placed on a plate shaker for 30 minutes at room temperature, sealed, and stored at −80° C. until needed. To thaw, the plate was placed on shaker at room temperature until completely thawed while the antibody master mix was made (1:40 Phospho-STAT1 Eu Cryptate antibody, 1:40 Phospho-STAT d2 antibody, with the detection buffer; Cisbio Phospho-STAT1 kit, part^#63ADK026PEH, Bedford, MA). The antibody master mix was then dispensed at 4 μL per well into a 384 ProxiPlate Plus (PerkinElmer, part^#6008289, Waltham, MA) and 16 μL of lysate was added from the Corning plate to the Proxiplate using a VIAFLO 384 (INTEGRA). The plate was incubated for 3 hours at room temperature and read on an EnVision® (Perkin Elmer) plate reader with laser excitation at 335 nm and emission at 665 nm. Dotmatics Studies (Bishop's Stortford, UK) was utilized to generate all dose-response curves and calculate EC50s and are shown in Table 2.

[3] = biological target: His tagged full-length PTPN1 protein (Homo sapiens (Human), UniProt P18031); assay: PTPN1 Mobility Shift Assay (MSA); type: biochemical; conditions: enzyme 0.5 nM, substrate 2 μM
Protocol: Example III-2: Mobility Shift Assay (MSA) Used to Determine Potency of PTPN1 Inhibitors
Compound activity was determined using in house His tagged full-length PTPN1 protein (SEQ ID NO: 3) in an in vitro enzymatic reaction. The enzymatic assay used to determine activity is a mobility shift assay using a LabChip EZ Reader by Caliper Life Sciences. The enzymatic reaction was carried out in assay buffer (50 mM HEPES pH 7.5, 1 mM EGTA, 10 mM EDTA, 0.01% Tween® 20, and 2 mM DTT). The compounds were dispensed on a white 384 well ProxiPlate™ (PerkinElmer Cat ^#6008289) plate using a Labcyte Echo® liquid handler at varying concentrations (12 point, 1:3 dilution). The enzyme (at 0.5 nM) was incubated with compound for 10 minutes at room temperature. Thereafter, the substrate (phosphorylated insulin receptor probe sequence: ((OG488)-(NH—CH2—CH2—O—CH2—CH2—O—CH2—CO)-T-R-D-I—(PY)-E-T-D-Y—Y—R—K—K—NH2) (SEQ ID NO: 2) was added at 2 μM to the plates and incubated for another 10 minutes at room temperature. Finally, a quench solution (water and 4-bromo-3-(2-oxo-2-propoxyethoxy)-5-(3-{[1-(phenylmethanesulfonyl)piperidin-4-yl]amino}phenyl)thiophene-2-carboxylic acid) was added to the plates, which were then run on the EZ Reader (excitation 488 nm, emission 530 nm) to measure % conversion (the amount of phosphorylated substrate which was de-phosphorylated by PTPN1). […] The % inhibition was then used to calculate the IC50 values.

[4] = Table 3, dihydrobenzofuran or indoline compound (X = O or NH)
[5] = 3 hours compound, 100 nM mouse IFNγ 10 minutes, read-out: B16F10 IFNγ Induced pSTAT1 EC50
[6] = Mus musculus, Table 3, dihydrobenzofuran or indoline compound (X = O or NH), read-out: pSTAT1 EC50

Sequence of His tagged PTPN2 (TC45) protein (P17706 other isoform, or with tags, fused parts or gaps): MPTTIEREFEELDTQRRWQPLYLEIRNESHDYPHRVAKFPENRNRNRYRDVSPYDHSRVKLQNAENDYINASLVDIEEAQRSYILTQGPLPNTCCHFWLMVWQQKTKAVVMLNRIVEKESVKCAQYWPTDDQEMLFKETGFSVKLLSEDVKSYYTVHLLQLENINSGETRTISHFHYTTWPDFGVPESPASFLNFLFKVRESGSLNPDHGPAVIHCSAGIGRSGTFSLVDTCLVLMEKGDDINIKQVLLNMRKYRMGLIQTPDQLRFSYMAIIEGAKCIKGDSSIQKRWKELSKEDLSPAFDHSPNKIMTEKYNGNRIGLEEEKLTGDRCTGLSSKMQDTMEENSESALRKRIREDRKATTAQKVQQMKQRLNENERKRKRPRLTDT
Sequence of His tagged full-length PTPN1 protein (P18031 whole entry): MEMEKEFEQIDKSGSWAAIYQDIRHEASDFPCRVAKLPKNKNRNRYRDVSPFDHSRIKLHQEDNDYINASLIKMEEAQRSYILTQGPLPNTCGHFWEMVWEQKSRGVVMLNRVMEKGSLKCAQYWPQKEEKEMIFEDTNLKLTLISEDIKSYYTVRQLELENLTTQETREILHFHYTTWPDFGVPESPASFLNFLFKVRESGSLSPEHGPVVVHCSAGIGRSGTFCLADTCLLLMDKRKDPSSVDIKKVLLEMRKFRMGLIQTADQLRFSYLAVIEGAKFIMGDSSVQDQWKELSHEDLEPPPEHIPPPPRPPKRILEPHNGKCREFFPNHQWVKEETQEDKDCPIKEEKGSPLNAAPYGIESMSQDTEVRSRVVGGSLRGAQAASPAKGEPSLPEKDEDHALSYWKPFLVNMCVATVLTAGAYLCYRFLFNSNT

SMILES | IC50 [1, 4] [nM] | IC50 ([1]; enzyme 0.5 nM, substrate 2 μM) [nM] | Dihydrobenzofuran or Indoline x-fold>potency biochemical [1] | EC50 [2, 5] [nM] | EC50 [2, 6] [nM] | Dihydrobenzofuran or Indoline x-fold>potency cellular [2] | IC50 [3] [nM]
O=C1CN(c2c(O)cc3c(c2F)C[C@H](CNCCC2CCOC2)O3)S(=O)(=O)N1 (stereo partly drawn) [Compound 108, 5-[(2R)-4-fluoro-6-hydroxy-2-({[2-(oxolan-3-yl)ethyl]amino}methyl)-2,3-dihydro-1-benzofuran-5-yl]-1λ^6,2,5-thiadiazolidine-1,1,3-trione] | 15.8 | 10 to 100 | 2.3 | 1910 | 1910 | 11.8 | 10 to 100
CCCNC[C@H]1Cc2c(cc(O)c(N3CC(=O)NS3(=O)=O)c2F)O1 [Compound 109, 5-{(2R)-4-fluoro-6-hydroxy-2-[(propylamino)methyl]-2,3-dihydro-1-benzofuran-5-yl}-1λ^6,2,5-thiadiazolidine-1,1,3-trione] |  | 10 to 100 |  | 1350 |  |  | 10 to 100
CCCN(CCC)C[C@H]1Cc2c(cc(O)c(N3CC(=O)NS3(=O)=O)c2F)O1 [Compound 110, 5-{(2R)-2-[(dipropylamino)methyl]-4-fluoro-6-hydroxy-2,3-dihydro-1-benzofuran-5-yl}-1λ^6,2,5-thiadiazolidine-1,1,3-trione] |  | 10 to 100 |  | 18000 |  |  | 10 to 100
CCCCNC[C@H]1Cc2c(cc(O)c(N3CC(=O)NS3(=O)=O)c2F)O1 [Compound 111, 5-{(2R)-2-[(butylamino)methyl]-4-fluoro-6-hydroxy-2,3-dihydro-1-benzofuran-5-yl}-1λ^6,2,5-thiadiazolidine-1,1,3-trione] |  | 10 to 100 |  | 1110 |  |  | 10 to 100
CCNC[C@H]1Cc2c(cc(O)c(N3CC(=O)NS3(=O)=O)c2F)O1 [Compound 112, 5-{(2R)-2-[(ethylamino)methyl]-4-fluoro-6-hydroxy-2,3-dihydro-1-benzofuran-5-yl}-1λ^6,2,5-thiadiazolidine-1,1,3-trione] |  | 10 to 100 |  | 776 |  |  | 10 to 100
O=C1CN(c2c(O)cc3c(c2F)C[C@H](CNCC2CCCC2)O3)S(=O)(=O)N1 [Compound 113, 5-[(2R)-2-{[(cyclopentylmethyl)amino]methyl}-4-fluoro-6-hydroxy-2,3-dihydro-1-benzofuran-5-yl]-1λ^6,2,5-thiadiazolidine-1,1,3-trione] |  | 10 to 100 |  | 770 |  |  | 10 to 100
O=C1CN(c2c(O)cc3c(c2F)C[C@H](CNCC2CCOCC2)O3)S(=O)(=O)N1 [Compound 114, 5-[(2R)-4-fluoro-6-hydroxy-2-({[(oxan-4-yl)methyl]amino}methyl)-2,3-dihydro-1-benzofuran-5-yl]-1λ^6,2,5-thiadiazolidine-1,1,3-trione] |  | 10 to 100 |  | 1460 |  |  | 10 to 100
CC(C)CCNC[C@H]1Cc2c(cc(O)c(N3CC(=O)NS3(=O)=O)c2F)O1 [Compound 115, 5-[(2R)-4-fluoro-6-hydroxy-2-{[(3-methylbutyl)amino]methyl}-2,3-dihydro-1-benzofuran-5-yl]-1λ^6,2,5-thiadiazolidine-1,1,3-trione] | 17.1 | 10 to 100 | 0.9 | 835 | 835 | 8.3 | 10 to 100
CCC(C)CNC[C@H]1Cc2c(cc(O)c(N3CC(=O)NS3(=O)=O)c2F)O1 (stereo partly drawn) [Compound 116, 5-[(2R)-4-fluoro-6-hydroxy-2-{[(2-methylbutyl)amino]methyl}-2,3-dihydro-1-benzofuran-5-yl]-1λ^6,2,5-thiadiazolidine-1,1,3-trione] |  | 10 to 100 |  | 736 |  |  | 10 to 100
O=C1CN(c2c(O)cc3c(c2F)C[C@H](CNCC2CC2)O3)S(=O)(=O)N1 [Compound 117, 5-[(2R)-2-{[(cyclopropylmethyl)amino]methyl}-4-fluoro-6-hydroxy-2,3-dihydro-1-benzofuran-5-yl]-1λ^6,2,5-thiadiazolidine-1,1,3-trione] |  | 10 to 100 |  | 818 |  |  | 10 to 100
O=C1CN(c2c(O)cc3c(c2F)C[C@H](CN(CC2CC2)CC2CC2)O3)S(=O)(=O)N1 [Compound 118, 5-[(2R)-2-{[bis(cyclopropylmethyl)amino]methyl}-4-fluoro-6-hydroxy-2,3-dihydro-1-benzofuran-5-yl]-1λ^6,2,5-thiadiazolidine-1,1,3-trione] |  | 10 to 100 |  | 20100 |  |  | 10 to 100
O=C1CN(c2c(O)cc3c(c2F)C[C@H](CNCC2CCC2)O3)S(=O)(=O)N1 [Compound 119, 5-[(2R)-2-{[(cyclobutylmethyl)amino]methyl}-4-fluoro-6-hydroxy-2,3-dihydro-1-benzofuran-5-yl]-1λ^6,2,5-thiadiazolidine-1,1,3-trione] |  | 10 to 100 |  | 848 |  |  | 10 to 100
O=C1CN(c2c(O)cc3c(c2F)C[C@H](CNCC2COC2)O3)S(=O)(=O)N1 [Compound 120, 5-[(2R)-4-fluoro-6-hydroxy-2-({[(oxetan-3-yl)methyl]amino}methyl)-2,3-dihydro-1-benzofuran-5-yl]-1λ^6,2,5-thiadiazolidine-1,1,3-trione] |  | 10 to 100 |  | 1610 |  |  | 10 to 100
O=C1CN(c2c(O)cc3c(c2F)C[C@H](CNCCC2(CO)CCC2)O3)S(=O)(=O)N1 [Compound 121, 5-{(2R)-4-fluoro-6-hydroxy-2-[({2-[1-(hydroxymethyl)cyclobutyl]ethyl}amino)methyl]-2,3-dihydro-1-benzofuran-5-yl}-1λ^6,2,5-thiadiazolidine-1,1,3-trione] |  | 10 to 100 |  | 1740 |  |  | 10 to 100
O=C1CN(c2c(O)cc3c(c2F)C[C@H](CNCCC2(CO)CCCC2)O3)S(=O)(=O)N1 [Compound 122, 5-{(2R)-4-fluoro-6-hydroxy-2-[({2-[1-(hydroxymethyl)cyclopentyl]ethyl}amino)methyl]-2,3-dihydro-1-benzofuran-5-yl}-1λ^6,2,5-thiadiazolidine-1,1,3-trione] |  | 10 to 100 |  | 1980 |  |  | 10 to 100
